The values that follow come from patent US8921552B2, “Benzothiazole hybrids useful as anticancer agents and process for the preparation thereof” (Council of Scientific & Industrial Research, priority 2011, dated 2014).

One experiment has as its system PC-3. Description: In vitro cytotoxicity, SRB assay, prostate cancer cell line PC-3. Type of experiment: cell-based, human. To be noted: PC-3 (prostate); for inhibition at 10 µM: 48 h exposure. The text has this: (§1) The benzothiazole hybrids has been tested against seven human tumor cell lines derived from six cancer types (lung cancer, colon cancer, CNS cancer, ovarian cancer, prostate cancer and breast cancer). For these compounds results are expressed as percent of cell growth inhibition relative to that of untreated control cells.
(In general: Sulforhodamine B stains cellular protein and so reports cell mass.)

In a further experiment the test system is Colo-205. Description: In vitro cytotoxicity, SRB assay, colon cancer cell line Colo-205. Type of experiment: cell-based, human. Conditions: Colo-205 (colon); for inhibition at 10 µM: 48 h exposure.
Excerpt: as §1

Another experiment has as its system IGR-OV-1. Briefly: In vitro cytotoxicity, SRB assay, ovarian cancer cell line IGR-OV-1. Type of experiment: cell-based, human. To be noted: IGR-OV-1 (ovarian); for inhibition at 10 µM: 48 h exposure.
Excerpt: as §1

In experiment [1] the test system is SW-620. Briefly: In vitro cytotoxicity, SRB assay, colon cancer cell line SW-620. Type of experiment: cell-based. Conditions: Homo sapiens, SW-620 (colon), 48 h exposure, read-out: % of growth inhibition. As for the experimental part: (§2) The benzothiazole hybrids has been tested against seven human tumor cell lines derived from six cancer types (lung cancer, colon cancer, CNS cancer, ovarian cancer, prostate cancer and breast cancer). For these compounds results are expressed as percent of cell growth inhibition relative to that of untreated control cells. A protocol of 48 h continuous drug exposure has been used, and a sulforhodamine B (SRB) protein assay was used to estimate cell viability or growth.
(§3) The compounds 9b, 9h, 9m, 9r, 15c, 15h, 15m, 15r, 10b, 10h, 10m, 10r, 16c, 16h and 16m were evaluated for in vitro anticancer activity against seven human tumor cells derived from six cancer types (lung cancer, colon cancer, CNS cancer, ovarian cancer, prostate cancer and breast cancer) at concentration of 10 μM and the results are shown in Table 1.

The next experiment relates to SF-295. Briefly: In vitro cytotoxicity, SRB assay, CNS cancer cell line SF-295. To be noted: SF-295 (CNS); for inhibition at 10 µM: 48 h exposure. Type of experiment: cell-based, human.
Excerpt: as §1

The subject of the next experiment is MCF7. Briefly: In vitro cytotoxicity, SRB assay, breast cancer cell line MCF7. Type of experiment: cell-based, human. To be noted: for inhibition at 10 µM: 48 h exposure.
Excerpt: as §1

The next experiment relates to A-549. Briefly: In vitro cytotoxicity, SRB assay, lung cancer cell line A-549. To be noted: A-549 (lung); for inhibition at 10 µM: 48 h exposure. Type of experiment: cell-based, human.
Excerpt: as §1

Experiment [2] relates to SW-620. Briefly: In vitro cytotoxicity, SRB assay, colon cancer cell line SW-620. To be noted: SW-620 (colon), reference drug at 1 μM. Type of experiment: cell-based, human.
The next experiment has as its system human tumor cell lines. Description: In vitro anticancer activity, panel of seven human tumor cell lines (SRB assay). Type of experiment: cell-based. Conditions: Homo sapiens; range over the cell lines, 10 μM, exposure period of at least 48 hrs; read-out: percentage growth inhibition for invitro anticancer activity. As for the experimental part:
as §2, §3

The mark [3] stands for this setting: Homo sapiens, read-out: % of growth inhibition.
The mark [4] stands for this setting: Homo sapiens, IGROV-1, read-out: % of growth inhibition.
Where [5] appears, read: Homo sapiens, A549, read-out: % of growth inhibition.
Where [6] appears, read: Homo sapiens, reference drug at 1 μM, read-out: % of growth inhibition.

What is called inhibition is the change of the read-out against control, counted positive when it falls. In the case of `O=c1[nH]cc(F)c(=O)[nH]1` [5-Fluoro uracil, reference compound], the inhibition at 10 µM with PC-3 (setting [3]) is 29%; in the experiment on Colo-205 (setting [3]) it was 55%; in the experiment on IGR-OV-1 (setting [4]), 47%; in the experiment on SW-620 [1], 41%; with SF-295 (setting [3]), 9%; in the experiment on MCF7 (setting [3]), 66%. The inhibition at 10 µM in the experiment with A-549 (setting [5]) was 64%.
In the case of `COc1cccc2c1C(=O)c1c(O)c3c(c(O)c1C2=O)C[C@@](O)(C(=O)CO)C[C@@H]3O[C@H]1C[C@H](N)[C@H](O)[C@H](C)O1` [Adriyamycin, reference compound], the “% of growth inhibition” value was found to be 55% with PC-3 (reference drug at 1 μM); 77% with Colo-205 (reference drug at 1 μM); 78% with IGR-OV-1 (reference drug at 1 μM); 55% in the experiment with SF-295 (reference drug at 1 μM); 69% with MCF7 (reference drug at 1 μM); 21% with SW-620 [2]. For the same compound, the “% of growth inhibition” value in the experiment with A-549 (reference drug at 1 μM) turned out to be 95%.
On to `COc1cc(-c2nc3ccccc3s2)ccc1OCCCOc1cc(/C=C\c2cc(OC)c(OC)c(OC)c2)ccc1OC` [Compound 9b, 2-[3-methoxy-4-(3-{2-methoxy-5-[(Z)-2-(3,4,5-trimethoxyphenyl)-1-ethenyl]phenoxy}propoxy)phenyl]-1,3-benzothiazole], for which the inhibition at 10 µM in the experiment with PC-3 (setting [3]) was 78%; in the experiment on Colo-205 (setting [3]), 16%; with IGR-OV-1 (setting [4]) it was 54%; with human tumor cell lines it was 1 to 100%; in the experiment with SF-295 (setting [3]), 53%; with MCF7 (setting [3]), 57%. Also, in the experiment with A-549 (setting [5]), the inhibition at 10 µM came to 69%.
For `COc1ccc(/C=C\c2cc(OC)c(OC)c(OC)c2)cc1OCCCCOc1ccc(-c2nc3ccccc3s2)cc1` [Compound 9h, 2-[4-(4-{2-methoxy-5-[(Z)-2-(3,4,5-trimethoxyphenyl)-1-ethenyl]phenoxy}butoxy)phenyl]-1,3-benzothiazole], the inhibition at 10 µM in the experiment with PC-3 (setting [3]) was 65%; in the experiment with Colo-205 (setting [3]), 15%; in the experiment with IGR-OV-1 (setting [4]), 54%; in the experiment on human tumor cell lines, 1 to 100%; with SF-295 (setting [3]), 34%; in the experiment with MCF7 (setting [3]) it was 64%. Further, in the experiment with A-549 (setting [5]), the inhibition at 10 µM is 63%.
For `COc1ccc(/C=C\c2cc(OC)c(OC)c(OC)c2)cc1OCCCCOc1cc(-c2nc3ccccc3s2)ccc1OC` [Compound 9m, 2-[4-methoxy-3-(4-{2-methoxy-5-[(Z)-2-(3,4,5-trimethoxyphenyl)-1-ethenyl]phenoxy}butoxy)phenyl]-1,3-benzothiazole], the inhibition at 10 µM in the experiment with PC-3 (setting [3]) was 68%; in the experiment with Colo-205 (setting [3]) it was 70%; in the experiment with IGR-OV-1 (setting [4]), 58%; in the experiment on human tumor cell lines, 1 to 100%; with SF-295 (setting [3]) it was 44%; with MCF7 (setting [3]), 64%. Further, the inhibition at 10 µM with A-549 (setting [5]) is 73%.
As for `CC(=O)O[C@H]1C(=O)[C@@]2(C)[C@H]([C@H](OC(=O)c3ccccc3)[C@]3(O)C[C@H](OC(=O)[C@H](O)[C@@H](NC(=O)c4ccccc4)c4ccccc4)C(C)=C1C3(C)C)[C@]1(OC(C)=O)CO[C@@H]1C[C@@H]2O` [Paclitaxel, reference compound], the inhibition at 1 µM in the experiment on PC-3 (setting [6]) is 35%; in the experiment with Colo-205 (setting [6]), 95%; in the experiment on IGR-OV-1 (Homo sapiens, IGROV-1, reference drug at 1 μM, read-out: % of growth inhibition), 44%; in the experiment on SF-295 (setting [6]), 59%; in the experiment on MCF7 (setting [6]), 59%; in the experiment with A-549 (Homo sapiens, A549, reference drug at 1 μM, read-out: % of growth inhibition) it was 62%.
